# Test results reported in US8507463B2, “Nucleotide analogue prodrug and the preparation thereof” (Jiangsu Chia Tai Tianqing Pharmaceutical Co., Ltd., priority 2005, dated 2013).
# Read-outs that look alike come from different tables or passages of the source.
# What was measured:
# [1] = type: physicochemical; conditions: for amount of solvent (ml), 0.1N HCl / amount of solvent (ml), 0.1N NaOH / amount of solvent (ml), anhydrous ethanol / amount of solvent (ml), methanol / amount of solvent (ml), water: to dissolve 1 g of sample
# [2] = Light exposure test (4500±500 Lx); type: physicochemical; conditions: light 4500±500 Lx
# From the text: Samples were evenly spread out and placed in open culture dishes and the thickness thereof was less than 5 mm, then distances were adjusted until the illumination intensity was 4500±500 Lx, samples were taken on the fifth and tenth day respectively for determination, compared with the result of day 0, results were listed in the table below: […]
# [3] = High temperature test (60° C.); type: physicochemical; conditions: sealed ampoules
# Method: Samples were sealed in clean glass ampoules and put in 60° C. thermostatic drying chamber, then they were taken on the fifth and tenth day respectively for determination, compared with the result of day 0, results were listed in the table below:
# Samples were sealed in clean glass ampoules and put in 60° C. thermostatic drying chamber, then they were taken on the fifth and tenth day respectively for determination, compared with the result of day 0, results were listed in the table below
# [4] = High humidity test (room temperature, relative humidity 75±5%); type: physicochemical; conditions: 25° C.
# Method: Samples were evenly spread out and placed in open culture dishes, wherein the thickness thereof was less than 5 mm, put in a thermostatic drying chamber at room temperature (25° C.) with relative humidity of 75±5%. Then the samples were taken on the fifth and tenth day respectively for determination, compared with the result of day 0, results were listed in the table below
# [5] = Acceleration test (40° C., relative humidity 75%); type: physicochemical
# Method: Samples were sealed with polyethylene plastic bags, placed in the thermostatic drying chamber at 40±2° C. with relative humidity of 75±5% for 3 months. Then the samples were taken at the end of the first, second and third month respectively for determination, compared with the result of day 0, results were listed in the table below: […]
# [6] = Stability analysis, overall conclusion in words; type: physicochemical; conditions: from light, high temperature, high humidity and acceleration tests
# [7] = Acute toxicity test, median lethal dose (LD50); conditions: both sexes, mouse, in vivo, oral, mice, infused into the stomach, observed 14 days
# Method: TD fumarate and TD crystalline form A were dissolved in 0.1M citric acid aqueous solution respectively, 140 healthy mice with 18˜22 g body-weight was selected, randomly divided into 14 groups, 10 per group, and the number of male and female mice were equal.
# Following the preliminary test, TD fumarate and TD crystalline form A were administered to 7 different dosing groups by infusing into the stomach, observed for 14 days consecutively to investigate the toxic reaction and death cases of mice and then LD50 was calculated.
# Duck Hepatitis B Virus = experiment: Anti-viral (anti-HBV) test in vivo, DHBV-DNA level by PCR; design: species or system GaoYou pockmark ducks; conditions: ducks, once a day, day 0 level as base line of 100
# Method: Two-month old pockmark ducks vertically infected with Duck Hepatitis B Virus were selected as animal models to conduct anti-HBV test in vivo, the efficacy was investigated. 80 GaoYou pockmark ducks were divided randomly into. 8 groups, 10 ducks per groups, three groups were given TD fumarate at the dosage of 5, 15, 45 mg/kg once a day respectively, other three groups were given Tenofovir Disoproxil Fumarate at the dosage of 5, 15, 45 mg/kg once a day respectively, other one group was given Adefovir Dipivoxil at the dosage of 15 mg/kg once a day and the remaining group was blank control group. All the groups were administered for 28 days, and blood samples were taken every 7 days to determine the inhibitory effect to the DHBV-DNA level by PCR, inhibition rate was listed in the following table.
# [8] = Bioavailability: blood concentration-time from plasma radioactivity; type: in vivo; conditions: mice, intragastric 30 mg/kg
# Method: 10 mice were randomly divided into 2 groups, 5 per group, intragastricly administered 3H-TD fumarate and Tenofovir Disoproxil Fumarate at 30 mg/kg with radio dose of 135 μCi/kg respectively. Plasm samples in different times were taken to measure the radioactivity, which was then converted into the plasma concentration.
# Comparison of the blood concentration (ug/ml)-time of 3H-TD fumarate and Tenofovir Disoproxil Fumarate.
# BEAGLE dogs = experiment: Long term toxicity test (kidney function); type: in vivo; conditions: 6 months
# Method: BEAGLE dogs as animal models, Adefovir Dipivoxil as control sample, long term toxicity of TD crystalline form A was investigated, especially the effects of TD crystalline form A on kidney function was investigated.
# 30 BEAGLE dogs were randomly divided into 5 groups, 6 dogs per group. One group as blank control group, three groups as low dosing, medium dosing and high dosing group of TD crystalline form A respectively. The dosage of low dosing group was 5 mg/kg once per day, the dosage of medium dosing group was 15 mg/kg once per day and the dosage of high dosing group was 45 mg/kg once per day. The remaining group was Adefovir Dipivoxil control group, dosed at 40 mg/kg once per day.
# Drugs mixed with salad oil were administered to the animals for 6 months consecutively, then observed for 21 consecutive days after drug withdrawal.
# [9] = human, cited from earlier work
# [10] = read-out: LD50, 95% confident limit
# [11] = BEAGLE dogs, 40 mg/kg once per day
smiles,measurement,setting,value
C[C@H](Cn1cnc2c(N)ncnc21)OCP(=O)(OCOC(=O)C(C)(C)C)OCOC(=O)C(C)(C)C.O=C(O)/C=C/C(=O)O [TD fumarate],"solubility conclusion, 0.1N HCl",[1],soluble
same,"solubility conclusion, 0.1N NaOH",[1],soluble
same,"solubility conclusion, anhydrous ethanol",[1],freely soluble
same,"solubility conclusion, methanol",[1],freely
same,"amount of solvent (ml), 0.1N HCl",[1],18.5 mL
same,"amount of solvent (ml), 0.1N NaOH",[1],65 mL
same,"amount of solvent (ml), anhydrous ethanol",[1],15.5 mL
same,"amount of solvent (ml), methanol",[1],7.4 mL
same,"amount of solvent (ml), water",[1]; water,120 mL
same,"solubility conclusion, water",[1]; water,soluble
same,"water solubility compared with other solid TD forms, in words",[1]; water,better water solubility
same,content (%),[2]; day 0,99.2%
same,content (%),[2]; day 5,99.2%
same,content (%),[2]; day 10,99.1%
same,content (%),[3]; day 0,99.5%
same,content (%),[3]; day 5,99.5%
same,content (%),[3]; day 10,99.4%
same,content (%),[4]; day 0,99.2%
same,Weight gain after moisture absorption (%),[4]; day 5,0%
same,content (%),[4]; day 5,99.1%
same,Weight gain after moisture absorption (%),[4]; day 10,0%
same,content (%),[4]; day 10,99.1%
same,content (%),[5]; end of month 1,99.0%
same,content (%),[5]; end of month 2,98.7%
same,content (%),[5]; end of month 3,98.5%
same,content (%),[5]; month 0,99.3%
same,"stability, overall conclusion in words",[6],good solubility and stabilities
same,LD50 at 14 days,[7]; read-out: LD50,6050 mg/kg
same,LD50 at 14 days,[7]; [10],4500 to 7870 mg/kg
same,"DHBV-DNA level, First week",Duck Hepatitis B Virus; 5 mg/ml group,92 ± 7
same,"DHBV-DNA level, Fourth week",Duck Hepatitis B Virus; 5 mg/ml group,40 ± 5
same,"DHBV-DNA level, Second week",Duck Hepatitis B Virus; 5 mg/ml group,71 ± 5
same,"DHBV-DNA level, Third week",Duck Hepatitis B Virus; 5 mg/ml group,50 ± 9
same,"DHBV-DNA level, First week",Duck Hepatitis B Virus; 15 mg/ml group,78 ± 9
same,"DHBV-DNA level, Fourth week",Duck Hepatitis B Virus; 15 mg/ml group,25 ± 7
same,"DHBV-DNA level, Second week",Duck Hepatitis B Virus; 15 mg/ml group,59 ± 8
same,"DHBV-DNA level, Third week",Duck Hepatitis B Virus; 15 mg/ml group,39 ± 7
same,"DHBV-DNA level, First week",Duck Hepatitis B Virus; 45 mg/ml group,65 ± 6
same,"DHBV-DNA level, Fourth week",Duck Hepatitis B Virus; 45 mg/ml group,16 ± 8
same,"DHBV-DNA level, Second week",Duck Hepatitis B Virus; 45 mg/ml group,43 ± 5
same,"DHBV-DNA level, Third week",Duck Hepatitis B Virus; 45 mg/ml group,25 ± 10
same,blood concentration,[8]; 10 min,0.73 µg/mL
same,blood concentration,[8]; 30 min,1.44 µg/mL
same,blood concentration,[8]; 45 min,1.77 µg/mL
same,blood concentration,[8]; 60 min,2.52 µg/mL
same,blood concentration,[8]; 90 min,1.34 µg/mL
same,blood concentration,[8]; 120 min,1.03 µg/mL
same,blood concentration,[8]; 180 min,0.94 µg/mL
same,blood concentration,[8]; 240 min,0.73 µg/mL
same,blood concentration,[8]; 360 min,0.55 µg/mL
same,blood concentration,[8]; 480 min,0.34 µg/mL
"C[C@H](Cn1cnc2c(N)ncnc21)OCP(=O)(OCOC(=O)C(C)(C)C)OCOC(=O)C(C)(C)C [TD crystalline form A, 9-[2-(R)-[bis[pivaloyloxymethoxy]-phosphinylmethoxy]propyl]adenine]","solubility conclusion, 0.1N HCl",[1],soluble
same,"solubility conclusion, 0.1N NaOH",[1],slightly
same,"solubility conclusion, anhydrous ethanol",[1],freely soluble
same,"solubility conclusion, methanol",[1],freely soluble
same,"amount of solvent (ml), 0.1N HCl",[1],33.5 mL
same,"amount of solvent (ml), 0.1N NaOH",[1],910 mL
same,"amount of solvent (ml), anhydrous ethanol",[1],5.0 mL
same,"amount of solvent (ml), methanol",[1],1.4 mL
same,"amount of solvent (ml), water",[1]; water,880 mL
same,"solubility conclusion, water",[1]; water,soluble
same,content (%),[2]; day 0,98.7%
same,content (%),[2]; day 5,98.3%
same,content (%),[2]; day 10,98.5%
same,content (%),[3]; day 0,99.1%
same,content (%),[3]; day 5,98.6%
same,content (%),[3]; day 10,98.4%
same,content (%),[4]; day 0,99.7%
same,Weight gain after moisture absorption (%),[4]; day 5,4.3%
same,content (%),[4]; day 5,98.5%
same,Weight gain after moisture absorption (%),[4]; day 10,5.6%
same,content (%),[4]; day 10,97.2%
same,content (%),[5]; end of month 1,93.1%
same,content (%),[5]; end of month 2,90.5%
same,content (%),[5]; end of month 3,86.3%
same,content (%),[5]; month 0,99.7%
same,"stability, overall conclusion in words",[6],good stabilities
same,LD50 at 14 days,[7]; read-out: LD50,4310 mg/kg
same,LD50 at 14 days,[7]; [10],2830 to 5440 mg/kg
same,urea nitrogen,"BEAGLE dogs; BEAGLE dogs, 5 mg/kg once per day",17.1 ± 1.32 mmol/L
same,urea nitrogen,"BEAGLE dogs; BEAGLE dogs, 15 mg/kg once per day",14.2 ± 1.20 mmol/L
same,urea nitrogen,"BEAGLE dogs; BEAGLE dogs, 45 mg/kg once per day",15.7 ± 1.08 mmol/L
same,"hematological, blood and urine biochemical parameters versus blank control group, in words","BEAGLE dogs; BEAGLE dogs, 5, 15 and 45 mg/kg once per day",no significant differences
CC(C)(C)C(=O)OCOP(=O)(COCCn1cnc2c(N)ncnc21)OCOC(=O)C(C)(C)C [Adefovir Dipivoxil],"levels of serum carnine and urea nitrogen, in words",BEAGLE dogs; [11],significantly higher
same,urea nitrogen,BEAGLE dogs; [11],24.7 ± 1.35 mmol/L
same,"DHBV-DNA level, First week",Duck Hepatitis B Virus; 15 mg/ml group,85 ± 7
same,"DHBV-DNA level, Fourth week",Duck Hepatitis B Virus; 15 mg/ml group,33 ± 6
same,"DHBV-DNA level, Second week",Duck Hepatitis B Virus; 15 mg/ml group,70 ± 6
same,"DHBV-DNA level, Third week",Duck Hepatitis B Virus; 15 mg/ml group,55 ± 7
same,adverse reaction and renal dysfunction,[9]; 50 mg/day and 30 mg/day,higher incidence
same,nephrotoxicity in clinical trials,[9]; recent clinical trials,observed
